Reference: US8883228B2, “Composition for heart disease, its active ingredients, method to prepare same and uses thereof” (Tasly Pharmaceutical Group Co. Ltd., priority 2003, dated 2014)

What was measured:
[1] = test system: Wistar rat's artificial heart; assay: Cardiac arrhythmia caused by exogenous free radicals, Langendorff perfusion; settings: 1 mg/L; ferrous sulfate/citrate free radicals alone up to 100%
Source text: Langendorff perfusion device was used to pour ferrous sulfate (0.25 mmol/L)/citrate (1.0 mmol/L) into the Wistar rat's artificial heart. The model of free radicals causing heart rhythm irregularity was replicated to observe the effects of DSP.

[2] = test system: angina caused by coronary heart disease; assay: Senior group angina, comparative analysis of DSP and Nifedipine; assay type: in vivo, human; settings: treatment of angina caused by coronary heart disease
Procedure: Both DSP and Nifedipine can treat angina caused by coronary heart disease, but the latter has side effects which are not suitable for long-term use. In order to choose suitable drugs for patients with a need for long-term treatment of coronary heart disease, a comparative analysis of DSP and Nifedipine in the treatment of angina caused by coronary heart disease was carried out. DSP is made for angina. It activates blood circulation and relieves pain efficiently. […] Nifedipine is a short-term-effective calcium antagonist with a short half-life and functional time, so angina may occur during medication. […] Many reports state that long-term treatment with Nifedipine is harmful to coronary arteries. DSP can prevent decreased blood flow to the cardiac muscles and the development of atherosclerosis.

[3] = test system: chronic pulmonary heart disease; assay: Healing effect on chronic pulmonary heart disease; assay type: in vivo, human; settings: treatment group versus control group
Source text: The total efficacy rate of treatment group is 95% and that of the control group 76%, the difference of which is statistically significant (P[…]0.05). […] There was a significant difference in the efficacy of the two groups (X^2=4.46 and 4.95, P[…]0.05). […] There were obvious changes in blood flow in the Treatment group before and after treatment compared with that of the Control group (P[…]0.05). The blood viscosity of the control group decreased after treatment, but there was no statistical deviation.

vegetative nerve balance = assay: Adjustment of vegetative nerve, heart rate variation (HRV); assay type: in vivo, human; settings: before and after treatment
Source text: This test uses “Wenger-Chongzhongchongxion” vegetative nerve balance factor analysis to test the heart rate variation (HRV), that is, the fluctuation in the average heartbeat over a certain period of time or over a long time period in the R-R period. Data, including effects on the sympathetic and para-sympathetic nerves can be calculated, to reflect the regulatory function of the vegetative nervous system. […] A decrease in HRV means the sympathetic nerve is excited. It is directly proportional to the symptoms in coronary heart disease and the possibility of sudden death and irregularity of heartbeat. DSP can control over-excitement of the […] nerve and regulate the balance in the vegetative nerve.

With `COc1ccc(CCN(C)CCCC(C#N)(c2ccc(OC)c(OC)c2)C(C)C)cc1OC` (centres unmarked) [verapamil] the “irregularity percentage (cardiac arrhythmia)” value [1] was 71.4%.

With `COC(=O)C1=C(C)NC(C)=C(C(=O)OC)C1c1ccccc1[N+](=O)[O-]` [Nifedipine] the side effects [2] was “many side effects”.

For `OCCN(CCO)c1nc(N2CCCCC2)c2nc(N(CCO)CCO)nc(N3CCCCC3)c2n1` [persantin], the total efficacy rate [3] was 76%.

`O=[N+]([O-])O[C@H]1CO[C@H]2[C@@H]1OC[C@H]2O[N+](=O)[O-]` [Isordil] was tested, and the “SDNN in R-R” value (vegetative nerve balance) was “no significant difference” and the “percentage of y>+0.56 (vegetative nerve balance factor)” value (vegetative nerve balance) was “not significant”.
